Results: patent US20080274892A1, “Novel Haloalkylsulfonanilide Derivative, Herbicide, and Method of Use Thereof” (priority 2005, published 2008)

Key:
false pimpernel [1] = test: Test Example 1: herbicidal efficacy on rice paddy weeds pre-emergence; assay type: in vivo, Lindernia pyxidaria; conditions: 21 days
Protocol: (§1) A 75 cm^2 plastic pot was filled with soil (clay loam) and planted seeds of bulrush which is a rice paddy weed. After covering the top with 75 cm^3 soil mixed with seeds of false pimpernel, the pot was filled with water so that the soil submerged under 5 cm depth of water. The predetermined effective dosage ([…]) of a formulation containing the compound of the present invention prepared according to Formulation Example 1-4 as an active ingredient was diluted in water and added to the pot water surface dropwise. The pot was kept in a hot house for 21 days and the herbicidal efficacy was investigated. The herbicidal efficacy was evaluated according to the following standard by comparing with untreated control. “-” in the table represents test not done.
(§2) The standard of judgment for herbicidal efficacy (degree of growth inhibition) and phytotoxicity 4 . . . 90%-100% of herbicidal efficacy or phytotoxicity 3 . . . 70%-89% of herbicidal efficacy or phytotoxicity 2 . . . 40%-69% of herbicidal efficacy or phytotoxicity 1 . . . 1%-39% of herbicidal efficacy or phytotoxicity 0 . . . 0% of herbicidal efficacy or phytotoxicity

[2] = system: paddy rice plant (cultivar: Nihonbare); test: Test Example 3: phytotoxicity test for transplanted paddy rice plant; assay type: in vivo; conditions: transplanted rice, 21 days after treatment
Protocol: as §2
A 75 cm^2 plastic pot was filled with soil (clay loam), and water was added so that the soil was submerged under 5 cm depth of water. Two paddy rice plant (cultivar: Nihonbare) at two leaves stage were transplanted at the depth of 1 cm and kept in a hot house. […] The pot was kept in a hot house for 21 days after the treatment and the phytotoxicity was investigated and evaluated according to the standard in Test Example 1 by comparing with the untreated control. “-” in the table represents test not done.

bulrush [3] = test: Test Example 1: herbicidal efficacy on rice paddy weeds pre-emergence; assay type: in vivo, Scirpus juncoides; conditions: 21 days
Protocol: as §1, §2

barnyard glass = test: Test Example 2: herbicidal efficacy on rice paddy weeds post-emergence; assay type: in vivo, Echinochloa crus-galli; conditions: post-emergence, one leaf stage, 21 days after treatment
Source text: as §2
(§3) A 75 cm^2 plastic pot was filled with soil (clay loam) and planted seeds of barnyard glass and bulrush which is a rice paddy weed. After covering the top with 75 cm^3 soil mixed with seeds of false pimpernel, the pot was filled with water so that the soil submerged under 5 cm depth of water and kept in a hot house. […] The pot was kept in a hot house for 21 days after the treatment and the herbicidal efficacy was investigated and evaluated according to the standard in Test Example 1 by comparing with the untreated control. “-” in the table represents test not done.

false pimpernel [4] = test: as above; assay type: in vivo, Lindernia pyxidaria; conditions: post-emergence, one leaf stage, 21 days after treatment
Source text: as §2, §3

bulrush [5] = test: as above; assay type: in vivo, Scirpus juncoides; conditions: post-emergence, one leaf stage, 21 days after treatment
Source text: as §2, §3

[6] = dosage 1000 g/ha, treated 5 days after transplantation

| Structure (SMILES) | False pimpernel pre (herbicidal efficacy grade) (false pimpernel [1]; dosage 1000 g/ha) | Phytotoxicity to paddy rice [2, 6] | Bulrush pre (herbicidal efficacy grade) (bulrush [3]; dosage 1000 g/ha) | Burnyard grass post (herbicidal efficacy grade) (barnyard glass; dosage 1000 g/ha) | False pimpernel post (herbicidal efficacy grade) (false pimpernel [4]; dosage 1000 g/ha) | Bulrush post (herbicidal efficacy grade) (bulrush [5]; dosage 1000 g/ha) | False pimpernel pre (herbicidal efficacy grade) (false pimpernel [1]; dosage 300 g/ha) | Phytotoxicity to paddy rice ([2]; dosage 300 g/ha) | Bulrush pre (herbicidal efficacy grade) (bulrush [3]; dosage 300 g/ha) | Burnyard grass post (herbicidal efficacy grade) (barnyard glass; dosage 300 g/ha) | False pimpernel post (herbicidal efficacy grade) (false pimpernel [4]; dosage 300 g/ha) | Bulrush post (herbicidal efficacy grade) (bulrush [5]; dosage 300 g/ha) |
| --- | --- | --- | --- | --- | --- | --- | --- | --- | --- | --- | --- | --- |
| O=C1OCCN1Cc1ccccc1NS(=O)(=O)C(F)(F)F [Compound 1-1] | 4 (90%-100% of herbicidal efficacy or phytotoxicity) | 1 (1%-39% of herbicidal efficacy or phytotoxicity) | 4 (90%-100% of herbicidal efficacy or phytotoxicity) | 4 (90%-100% of herbicidal efficacy or phytotoxicity) | 4 (90%-100% of herbicidal efficacy or phytotoxicity) | 4 (90%-100% of herbicidal efficacy or phytotoxicity) | – | – | – | – | – | – |
| CC(C)C1COC(=O)N1Cc1ccccc1NS(=O)(=O)C(F)(F)F (stereo not drawn) [Compound 1-9] | – | – | – | – | – | – | 4 (90%-100% of herbicidal efficacy or phytotoxicity) | 2 (40%-69% of herbicidal efficacy or phytotoxicity) | 4 (90%-100% of herbicidal efficacy or phytotoxicity) | 4 (90%-100% of herbicidal efficacy or phytotoxicity) | 2 (40%-69% of herbicidal efficacy or phytotoxicity) | 4 (90%-100% of herbicidal efficacy or phytotoxicity) |
| CC(C)(C)C1CN(Cc2ccccc2NS(=O)(=O)C(F)(F)F)C(=O)O1 (stereo not drawn) [Compound 1-33] | 4 (90%-100% of herbicidal efficacy or phytotoxicity) | 2 (40%-69% of herbicidal efficacy or phytotoxicity) | 4 (90%-100% of herbicidal efficacy or phytotoxicity) | 4 (90%-100% of herbicidal efficacy or phytotoxicity) | 4 (90%-100% of herbicidal efficacy or phytotoxicity) | 4 (90%-100% of herbicidal efficacy or phytotoxicity) | – | – | – | – | – | – |
| CCCCC1(C)CN(Cc2ccccc2NS(=O)(=O)C(F)(F)F)C(=O)O1 (racemic) [Compound 1-121] | – | – | – | – | – | – | 4 (90%-100% of herbicidal efficacy or phytotoxicity) | 1 (1%-39% of herbicidal efficacy or phytotoxicity) | 4 (90%-100% of herbicidal efficacy or phytotoxicity) | 1 (1%-39% of herbicidal efficacy or phytotoxicity) | 4 (90%-100% of herbicidal efficacy or phytotoxicity) | 4 (90%-100% of herbicidal efficacy or phytotoxicity) |
| CC1(c2ccccc2)CN(Cc2ccccc2NS(=O)(=O)C(F)(F)F)C(=O)O1 (stereo not drawn) [Compound 1-140] | – | – | – | – | – | – | 4 (90%-100% of herbicidal efficacy or phytotoxicity) | 1 (1%-39% of herbicidal efficacy or phytotoxicity) | 4 (90%-100% of herbicidal efficacy or phytotoxicity) | 2 (40%-69% of herbicidal efficacy or phytotoxicity) | 4 (90%-100% of herbicidal efficacy or phytotoxicity) | 4 (90%-100% of herbicidal efficacy or phytotoxicity) |
| CC(C)COC(=O)N(c1ccccc1CN1C(=O)OC(C)(C)C1(C)C)S(=O)(=O)C(F)(F)F [Compound 1-74] | 4 (90%-100% of herbicidal efficacy or phytotoxicity) | 4 (90%-100% of herbicidal efficacy or phytotoxicity) | 4 (90%-100% of herbicidal efficacy or phytotoxicity) | 4 (90%-100% of herbicidal efficacy or phytotoxicity) | 4 (90%-100% of herbicidal efficacy or phytotoxicity) | 4 (90%-100% of herbicidal efficacy or phytotoxicity) | – | – | – | – | – | – |
| CCCCC1COC(=O)N1Cc1ccccc1N(C(=O)OCC(C)C)S(=O)(=O)C(F)(F)F (stereo not drawn) [Compound 1-12] | – | – | – | – | – | – | 2 (40%-69% of herbicidal efficacy or phytotoxicity) | 0 (0% of herbicidal efficacy or phytotoxicity) | 4 (90%-100% of herbicidal efficacy or phytotoxicity) | 2 (40%-69% of herbicidal efficacy or phytotoxicity) | 2 (40%-69% of herbicidal efficacy or phytotoxicity) | 4 (90%-100% of herbicidal efficacy or phytotoxicity) |
| CC(C)(C)OC(=O)NCC1CN(Cc2ccccc2NS(=O)(=O)C(F)(F)F)C(=O)O1 (racemic) [1-106] | – | – | – | – | – | – | 2 (40%-69% of herbicidal efficacy or phytotoxicity) | 0 (0% of herbicidal efficacy or phytotoxicity) | 4 (90%-100% of herbicidal efficacy or phytotoxicity) | 0 (0% of herbicidal efficacy or phytotoxicity) | 2 (40%-69% of herbicidal efficacy or phytotoxicity) | 4 (90%-100% of herbicidal efficacy or phytotoxicity) |
| CC1(COc2ccccc2)CN(Cc2ccccc2NS(=O)(=O)C(F)(F)F)C(=O)O1 (stereo not drawn) [Compound 1-155] | – | – | – | – | – | – | 4 (90%-100% of herbicidal efficacy or phytotoxicity) | 1 (1%-39% of herbicidal efficacy or phytotoxicity) | 4 (90%-100% of herbicidal efficacy or phytotoxicity) | 1 (1%-39% of herbicidal efficacy or phytotoxicity) | 4 (90%-100% of herbicidal efficacy or phytotoxicity) | 4 (90%-100% of herbicidal efficacy or phytotoxicity) |
| CC(C)COC(=O)N(c1ccccc1CN1CC(C(F)(F)F)OC1=O)S(=O)(=O)C(F)(F)F (stereo not drawn) [Compound 1-20] | – | – | – | – | – | – | 3 (70%-89% of herbicidal efficacy or phytotoxicity) | 0 (0% of herbicidal efficacy or phytotoxicity) | 4 (90%-100% of herbicidal efficacy or phytotoxicity) | 4 (90%-100% of herbicidal efficacy or phytotoxicity) | 3 (70%-89% of herbicidal efficacy or phytotoxicity) | 4 (90%-100% of herbicidal efficacy or phytotoxicity) |
| CC(C)COC(=O)N(c1ccccc1CN1CC(C)(COCc2ccccc2)OC1=O)S(=O)(=O)C(F)(F)F (stereo not drawn) [Compound 1-174] | 4 (90%-100% of herbicidal efficacy or phytotoxicity) | 1 (1%-39% of herbicidal efficacy or phytotoxicity) | 4 (90%-100% of herbicidal efficacy or phytotoxicity) | 4 (90%-100% of herbicidal efficacy or phytotoxicity) | 4 (90%-100% of herbicidal efficacy or phytotoxicity) | 4 (90%-100% of herbicidal efficacy or phytotoxicity) | – | – | – | – | – | – |
| CC(C)COC(=O)N(c1ccccc1CN1CC(C(C)(C)C)OC1=O)S(=O)(=O)C(F)(F)F (stereo not drawn) [Compound 1-34] | 4 (90%-100% of herbicidal efficacy or phytotoxicity) | 1 (1%-39% of herbicidal efficacy or phytotoxicity) | 4 (90%-100% of herbicidal efficacy or phytotoxicity) | 4 (90%-100% of herbicidal efficacy or phytotoxicity) | 4 (90%-100% of herbicidal efficacy or phytotoxicity) | 4 (90%-100% of herbicidal efficacy or phytotoxicity) | – | – | – | – | – | – |
